Results on one molecule are retold here after publication PMC6099630, “Synthesis, Antiviral and Cytotoxic Activity of Novel Terpenyl Hybrid Molecules Prepared by Click Chemistry” (Molecules : A Journal of Synthetic Chemistry and Natural …, 2018).

In one series the test system is HSV-1 Field strain. Nature of the series: Cytopathic effect assay, HSV-1 Field. Type of series: cell-based, herpes simplex virus type 1 (HSV-1). To be noted: Human alphaherpesvirus 1; inhibition of 50% viral cytopathic effect; m.o.i. 0.1 PFU/cell, 48 h p.i.; nonlinear regression. As for the experimental part:
(§1) The synthetic compounds and acyclovir (ACV, Sigma) were dissolved in dimethylsulfoxide (DMSO) and diluted with Eagle’s minimal essential medium supplemented with 1.5% inactivated fetal bovine serum (FBS) and 50 μg/mL gentamicin (MEM 1.5%).
(§2) Vero and Hep-2 cells were grown in MEM supplemented with 10% inactivated FBS and 50 µg/mL gentamicin and maintained in MEM 1.5%. Raw 264.7 cells were grown in Dulbecco’s Modified Eagle’s Medium (DMEM) supplemented with 10% FBS and 50 µg/mL gentamicin and maintained in DMEM 1.5%. C6 cells were grown in DMEM-F12 supplemented with 2.5% FBS50 µg/mL gentamicin and 15% horse serum (HS) and maintained in DMEM-F12 supplemented with 1.5% FBS. HSV-1 KOS, thymidine kinase-deficient (TK−) B2006 and Field strains of HSV-1 were used and propagated at low multiplicity of infection (m.o.i.) on Vero cells.
(§3) Cells grown in 96-well plates were infected or not with HSV-1 (KOS, Field and B2006 strains) at a m.o.i. of 0.1 PFU/cell. After 1-h adsorption at 37 °C, the inoculum was removed and medium containing or not the compounds was added, in triplicate. […] Then, cells were fixed with 10% formaldehyde for 15 min at room temperature, washed once with distilled water and stained with 0.05% crystal violet in 10% ethanol over 30 min. […] The absorbance of each well was measured on an Eurogenetics MPR-A 4i microplate reader using a test wave-length of 590 nm.
(Cytopathic effects are the visible damage that an infection or toxin causes in cultured cells.)

Another series deals with HSV-1 KOS strain. The series is described as follows: Cytopathic effect assay, HSV-1 KOS. The following applies: Human alphaherpesvirus 1; inhibition of 50% viral cytopathic effect; m.o.i. 0.1 PFU/cell, 48 h p.i.; nonlinear regression. The series is classed as cell-based, herpes simplex virus type 1 (HSV-1). As for the experimental part: as §1, §2, §3
A short description of another series: in vitro. Type of series: cell-based. To be noted: African green monkey. As for the experimental part:
as §1, §2
Cell viability was determined using the tetrazolium salt MTT (3-(4,5-dimethylthiazol-2-yl)-2,5-diphenyltetrazolium bromide, Sigma) according to the manufacturer’s instructions. […] The absorbance was measured on a MPR-A 4i microplate reader (Eurogenetics, Tipperary, Ireland) using a test wavelength of 570 nm and a reference wavelength of 630 nm. Results were expressed as a percentage of absorbance of treated cell cultures with respect to untreated ones. […]

Series [1] concerns HSV-1 B2006 strain (thymidine kinase-deficient, TK−). The series is described as follows: microbe, parasite or virus in culture. The series is classed as cell-based, herpes simplex virus type 1 (HSV-1). To be noted: Human alphaherpesvirus 1, 48 h, read-out: EC50 B2006. As for the experimental part: as §1, §2, §3

Usually EC50 stands for the concentration at which the effect is half-maximal. One may read the CC50 as the concentration at which the toxic effect on the cells reaches its halfway point.

Consider `Nc1nc2c(ncn2COCCO)c(=O)[nH]1` [ACV, Acyclovir], for which the EC50 came to 73 ± 1 µM with HSV-1 Field strain, 8.2 ± 1 µM in the series on HSV-1 KOS strain and 50 ± 2 µM in series [1]. Also, the CC50 at 48 h in the series “in vitro” is greater than 1000 µM.
